Laboratory results as given in patent US9493466B2, “Treatment of cancer with TOR kinase inhibitors” (Signal Pharmaceuticals, LLC, priority 2011, dated 2016).
“And” between values parts separate entries of the source, which are not always exact repeats. Identical values can stand only once.

What was measured:
Test in all cases: Cell viability assay for NSCLC lines
Type in all cases: cell-based, human
Calu-1 = details: Calu-1, 3 days
Description: (§1) Cell Viability Assay for NSCLC Lines. Cell viability was assessed using the Cell Titer-Glo Luminescent Cell Viability from Promega. The assay is a homogenous method of determining the number of viable cells in culture based on quantitation of the adenosine triphosphate (ATP) present, an indicator of metabolically active cells. The homogenous assay procedure involves adding the single reagent (CellTiter-Glo Reagent) directly to cells cultured in serum-supplemented medium. Cells were plated into a 96-well flat bottom plate (Costar Catalog Number 33595) at densities that were previously optimized for each cell line. The cells were incubated overnight in 5% CO2 at 37° C. The following day, compound dilutions were prepared and all concentrations were assayed in triplicate. The cells were incubated with Compound 1 (0.03 μM, 0.1 μM, 0.3 μM, 1 μM, 3 μM, 10 μM and 30 μM for NSCLC cells) in 5% CO2 at 37° C. for 3 days. After a 3-day incubation period, 100 μL of CellTiter-Glo reagent was added to each well for 2 minutes with shaking and further incubated for 10 minutes (no shaking) at room temperature to stabilize the signal. The luminescence was measured on the VICTOR X2 multilabel plate reader. The percent growth inhibition was calculated using the DMSO control in the same plate (no compound) response as 100% cell growth. The average values from triplicates were plotted to obtain IC50 values using software XLfit from IDBS. The formula used for determining IC50 in XLfit was model number 205, which utilizes a 4 Parameter Logistic Model or Sigmoidal Dose-Response Model to calculate the IC50 values. All IC50 values are reported as an average from either two independent experiments or a single experiment.

Calu-3 = details: Calu-3, 3 days
Description: as §1

Calu-6 = details: Calu-6, 3 days
Description: as §1

HOP62 = details: HOP62, 3 days
Description: as §1

HOP92 = details: HOP92, 3 days
Description: as §1

NCI-H1299 = details: NCI-H1299, 3 days
Description: as §1

NCI-H1437 = details: NCI-H1437, 3 days
Description: as §1

NCI-H1563 = details: NCI-H1563, 3 days
Description: as §1

NCI-H1650 = details: NCI-H1650, 3 days
Description: as §1

NCI-H1693 = details: NCI-H1693, 3 days
Description: as §1

NCI-H1703 = details: NCI-H1703, 3 days
Description: as §1

NCI-H1734 = details: NCI-H1734, 3 days
Description: as §1

NCI-H1838 = details: NCI-H1838, 3 days
Description: as §1

NCI-H1944 = details: NCI-H1944, 3 days
Description: as §1

NCI-H1975 = details: NCI-H1975, 3 days
Description: as §1

NCI-H1993 = details: NCI-H1993, 3 days
Description: as §1

NCI-H2009 = details: NCI-H2009, 3 days
Description: as §1

NCI-H2030 = details: NCI-H2030, 3 days
Description: as §1

NCI-H2110 = details: NCI-H2110, 3 days
Description: as §1

NCI-H2122 = details: NCI-H2122, 3 days
Description: as §1

NCI-H226 = details: NCI-H226, 3 days
Description: as §1

NCI-H2291 = details: NCI-H2291, 3 days
Description: as §1

NCI-H23 = details: NCI-H23, 3 days
Description: as §1

NCI-H2444 = details: NCI-H2444, 3 days
Description: as §1

NCI-H28 = details: NCI-H28, 3 days
Description: as §1

NCI-H358 = details: NCI-H358, 3 days
Description: as §1

NCI-H441 = details: NCI-H441, 3 days
Description: as §1

NCI-H460 = details: NCI-H460, 3 days
Description: as §1

NCI-H520 = details: NCI-H520, 3 days
Description: as §1

NCI-H549 = details: NCI-H549, 3 days
Description: as §1

NCI-H647 = details: NCI-H647, 3 days
Description: as §1

NCI-H650 = details: NCI-H650, 3 days
Description: as §1

NCI-H727 = details: NCI-H727, 3 days
Description: as §1

SK-LU-1 = details: SK-LU-1, 3 days
Description: as §1

SW1573 = details: SW1573, 3 days
Description: as §1

Structure (SMILES): CO[C@H]1CC[C@H](N2C(=O)CNc3ncc(-c4ccc(C(C)(C)O)nc4)nc32)CC1 [Compound 1, 7-(6-(2-hydroxypropan-2-yl)pyridin-3-yl)-1-((1r,4r)-4-methoxycyclohexyl)-3,4-dihydropyrazino-[2,3-b]pyrazin-2(1H)-one]
- IC50 (Calu-1): 4.74 µM
- IC50 (Calu-3): 0.302 µM
- IC50 (Calu-6): 4.52 µM
- IC50 (HOP62): 2.01 µM
- IC50 (HOP92): > 30 µM
- IC50 (NCI-H1299): 1.23 µM
- IC50 (NCI-H1437): 0.975 µM
- IC50 (NCI-H1563): > 30 µM
- IC50 (NCI-H1650): > 30 µM
- IC50 (NCI-H1693): 1.58 µM
- IC50 (NCI-H1703): 0.92 µM
- IC50 (NCI-H1734): 1.55 µM
- IC50 (NCI-H1838): > 30 µM
- IC50 (NCI-H1944): 0.55 µM
- IC50 (NCI-H1975): 0.96 µM
- IC50 (NCI-H1993): 0.5 µM
- IC50 (NCI-H2009): 26 µM
- IC50 (NCI-H2030): 2.23 µM
- IC50 (NCI-H2110): 0.456 µM
- IC50 (NCI-H2122): 0.9 µM
- IC50 (NCI-H226): 1.75 µM
- IC50 (NCI-H2291): > 30 µM
- IC50 (NCI-H23): 2.21 µM
- IC50 (NCI-H2444): 0.778 µM
- IC50 (NCI-H28): > 30 µM
- IC50 (NCI-H358): 1.42 µM
- IC50 (NCI-H441): > 30 µM
- IC50 (NCI-H460): 0.37 µM
- IC50 (NCI-H520): 0.499 µM and 0.5 µM
- IC50 (NCI-H549): 0.77 µM
- IC50 (NCI-H647): 1.36 µM
- IC50 (NCI-H650): > 30 µM
- IC50 (NCI-H727): 0.288 µM
- IC50 (SK-LU-1): 1.44 µM
- IC50 (SW1573): 7.21 µM
